The test system of data set [1] is MCF10A breast cell line (non-tumour derived). Nature of the data set: In vitro cytotoxicity MTT assay, non-tumour MCF10A breast. The data set is classed as cell-based. To be noted: MCF10A (non-cancerous), 72 h drug exposure, n = 3. On the technique in general: Tetrazolium assays rely on reduction of a dye to a coloured formazan, in cell work by metabolically active cells.

Data set [2] concerns A431 skin. As to the kind of experiment: In vitro cytotoxicity MTT assay, A431 skin. Type of data set: cell-based. To be noted: n = 3.
Data set [3] has as its system MIA pancreas. Nature of the data set: In vitro cytotoxicity MTT assay, MIA pancreas. The data set is classed as cell-based. To be noted: 72 h drug exposure, n = 3.
The subject of data set [4] is BE2-C neuroblastoma. As to the kind of experiment: In vitro cytotoxicity MTT assay, BE2-C neuroblastoma. To be noted: 72 h drug exposure, n = 3. The data set is classed as cell-based.
Data set [5] concerns the target T1, human COX-2 (Homo sapiens, UniProt P35354).
T1 sequence (P35354 18-604): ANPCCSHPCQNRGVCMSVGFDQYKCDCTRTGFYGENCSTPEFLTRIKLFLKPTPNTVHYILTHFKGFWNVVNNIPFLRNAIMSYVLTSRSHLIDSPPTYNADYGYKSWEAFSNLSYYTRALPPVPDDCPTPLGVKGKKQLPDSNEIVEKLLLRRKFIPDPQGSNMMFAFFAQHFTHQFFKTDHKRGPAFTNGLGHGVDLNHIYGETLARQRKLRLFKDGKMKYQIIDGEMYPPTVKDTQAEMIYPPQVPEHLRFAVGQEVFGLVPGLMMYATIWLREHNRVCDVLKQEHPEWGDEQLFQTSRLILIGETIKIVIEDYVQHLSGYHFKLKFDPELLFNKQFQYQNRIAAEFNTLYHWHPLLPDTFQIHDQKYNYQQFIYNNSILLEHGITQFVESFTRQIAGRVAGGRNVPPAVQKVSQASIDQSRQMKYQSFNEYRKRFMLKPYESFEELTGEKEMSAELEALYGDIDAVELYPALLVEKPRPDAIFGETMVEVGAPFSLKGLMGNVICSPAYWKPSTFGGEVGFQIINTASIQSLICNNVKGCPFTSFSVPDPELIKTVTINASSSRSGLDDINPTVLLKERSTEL
Protocol: (§1) The preparation of standards and samples and the completion of the assay were carried out following the manufacturer’s protocol. As described below, the completion of the assay required three main steps: the preparation of standards, the COX reaction and EIA.
(§2) The preparation of standards involved serial dilution of the prostaglandin (PG)-screening ELISA standard with ELISA buffer.
(§3) All tubes were incubated for 10 min at 37 °C. To initiate the reaction, arachidonic acid (10 µL) was added to each tube. This was incubated for 30 s at 37 °C before stannous chloride (30 µL) was added to stop enzyme catalysis. The tubes were removed from the water bath and vortexed, then incubated for five minutes at room temperature.
(§4) For EIA, ELISA buffer (100 µL) was added to non-specific binding (NSB) wells and ELISA buffer (50 µL) was added to maximum binding (B0) wells; 50 µL from each PG screening standard was added to the standard wells in duplicate. A background sample (50 µL) and COX 100% initial activity samples (50 µL) were added to the wells in duplicate. Each inhibitor sample (50 µL) was added to the wells in triplicate. PG screening acetylcholinesterase (AChE) tracer (50 µL) was added to all wells except for the total activity and blank wells. PG screening ELISA antiserum (50 µL) was added to each well except for the total activity, NSB and blank wells. The plate was covered with plastic film and incubated for 18 h at room temperature on an orbital shaker. The wells were emptied and rinsed with wash buffer five times. Ellman’s reagent (200 µL) was added to each well, followed by AChE tracer (5 µL) in the total activity well. The plate was covered with plastic film and left to develop in the dark using an orbital shaker at room temperature for one hour. The absorbance was recorded at 405 nm using a plate reader.

In data set [6] the test system is SJ-G2 glioblastoma. As to the kind of experiment: In vitro cytotoxicity MTT assay, SJ-G2 glioblastoma. Type of data set: cell-based. To be noted: 72 h drug exposure, n = 3.
Data set [7] relates to H460 lung. As to the kind of experiment: In vitro cytotoxicity MTT assay, H460 lung. The data set is classed as cell-based. To be noted: n = 3.
For data set [8], the system named is MCF-7 breast. As to the kind of experiment: In vitro cytotoxicity MTT assay, MCF-7 breast. To be noted: n = 3. Type of data set: cell-based.
In data set [9] the test system is HT29 colon cancer cell line. Nature of the data set: In vitro cytotoxicity MTT assay, HT29 colon. The data set is classed as cell-based. To be noted: n = 3.
Data set [10] concerns A2780 ovarian. As to the kind of experiment: In vitro cytotoxicity MTT assay, A2780 ovarian. The data set is classed as cell-based. To be noted: 72 h drug exposure, n = 3.
In data set [11] the test system is U87 glioblastoma. Nature of the data set: In vitro cytotoxicity MTT assay, U87 glioblastoma. To be noted: 72 h drug exposure, n = 3. The data set is classed as cell-based.
In data set [12] the test system is Du145 prostate cancer cell line. As to the kind of experiment: In vitro cytotoxicity MTT assay, Du145 prostate. The data set is classed as cell-based. To be noted: n = 3.
The target in data set [13] is T1, human COX-2. Nature of the data set: biochemical. To be noted: read-out: COX-2 inhibition.
Protocol: as §1, §2, §3, §4
The subject of data set [14] is cisplatin-resistant ADDP ovarian (subclone of A2780 cell line). As to the kind of experiment: In vitro cytotoxicity MTT assay, cisplatin-resistant ADDP ovarian. The data set is classed as cell-based. To be noted: for GI50: ADDP (cisplatin-resistant), MTT, 72 h drug exposure, n = 3.
Data set [15] relates to MCF10A breast cell line (non-tumour derived). To be noted: MTT, 72 h, ref [2] Macias et al., Eur. J. Chem. 2015; cited from earlier work.
The test system of data set [16] is MIA pancreas. To be noted: MTT, 72 h, ref [2] Macias et al., Eur. J. Chem. 2015; cited from earlier work.
Data set [17] deals with SJ-G2 glioblastoma. To be noted: MTT, 72 h, ref [2] Macias et al., Eur. J. Chem. 2015; cited from earlier work.
For data set [18], the system named is A431 skin. To be noted: MTT, 72 h, ref [2] Macias et al., Eur. J. Chem. 2015; cited from earlier work.
The test system of data set [19] is U87 glioblastoma. To be noted: MTT, 72 h, ref [2] Macias et al., Eur. J. Chem. 2015; cited from earlier work.
In data set [20] the test system is MCF-7 breast. To be noted: MTT, 72 h, ref [2] Macias et al., Eur. J. Chem. 2015; cited from earlier work.
The test system of data set [21] is BE2-C neuroblastoma. To be noted: MTT, 72 h, ref [2] Macias et al., Eur. J. Chem. 2015; cited from earlier work.
Data set [22] has as its system Du145 prostate cancer cell line. To be noted: MTT, 72 h, ref [2] Macias et al., Eur. J. Chem. 2015; cited from earlier work.
Data set [23] concerns cisplatin-resistant ADDP ovarian (subclone of A2780 cell line). To be noted: MTT, 72 h, ref [2] Macias et al., Eur. J. Chem. 2015; cited from earlier work.
Data set [24] deals with A2780 ovarian. To be noted: MTT, 72 h, ref [2] Macias et al., Eur. J. Chem. 2015; cited from earlier work.
The subject of data set [25] is A2780 (ovarian) and ADDP (cisplatin-resistant ovarian) cancer cell lines. Nature of the data set: Cellular platinum accumulation by ICP-MS. Type of data set: cell-based. To be noted: 4 h.
A further data set deals with ADDP cell line. As to the kind of experiment: Cellular platinum accumulation by ICP-MS, ADDP. The data set is classed as cell-based.
In data set [26] the test system is HT29 colon cancer cell line. To be noted: MTT, 72 h, ref [2] Macias et al., Eur. J. Chem. 2015; cited from earlier work.
Data set [27] deals with H460 lung. To be noted: MTT, 72 h, ref [2] Macias et al., Eur. J. Chem. 2015; cited from earlier work.
Data set [28] is described as follows: Preliminary NMR reduction study with ascorbic acid. The data set is classed as physicochemical. To be noted: D2O with 10X PBS, 37 °C. The procedure:
Given that 1–4 were designed on the premise of functionating as prodrugs, it is anticipated that these complexes be reduced to platinum(II) and release their respective axial ligands, which will allow each component to exert its activity. To explore this possibility, preliminary NMR reduction studies were undertaken for 3. The sample was prepared in D2O with 10X PBS before ascorbic acid was added, and the sample was monitored by ^1H NMR at 37 °C. After the addition of ascorbic acid, resonances corresponding to the platinum(II) species appeared, with the intensities increasing over time, while the peaks correlating to platinum(IV) species decreased (Figure 5). Following this, ^195Pt NMR was carried out in order to confirm that the platinum(II) species remained intact.

Data set [29] in a line: Lipophilicity by RP-HPLC (log kw). The data set is classed as physicochemical. To be noted: capacity factor extrapolated to 100% water. The procedure: HPLC experiments were executed on an Agilent (Melbourne, Australia) Technologies 1260 Infinity instrument equipped with a Phenomenex (Sydney, Australia) Onyx^TM Monolithic C18 reverse phase column (100 × 4.6 mm, 130 Å). The mobile phase was comprised of 0.06% TFA in water (solvent A) and 0.06% TFA in an acetonitrile-water mixture (9:1) (solvent B). A sample injection volume of 10 µL was used at a flow rate of 1 mL/min and eluted over a gradient of 0–100% for 15 min. A PDA was used to detect the eluting peaks at 254 nm. Lipophilicity experiments to determine logkw values were undertaken following previously published methods. Rather than a gradient, different isocratic ratios ranging from 28–56% of solvent B were employed and the retention times measured for each complex. Potassium iodide was used as an external dead volume marker to determine the dead time of the column. The following equation was used to calculate the capacity factors:(1) k=tr−t0/t0 where k is the capacity factor, tr is the retention time of the analyte, and t0 is the dead time. Following this, log k was plotted against the percentage of ACN. Five different concentrations of ACN were used to produce a linear plot comprised of R^2 > 0.99. This graph produced the following equation:(2) logk=Sφ+logkw where S is the slope, φ is the % ACN, and the y-intercept, represented as logkw , is the capacity factor of the compound in 100% water.
Lipophilicity studies were carried out to determine the logkw of each complex. This was ascertained through a RP-HPLC based approach whereby complexes were eluted at several isocratic ratios. In turn, retention times were employed as in Equation (1), where the capacity factor (k) was calculated. The log k value at each ratio was then plotted against the percentage of the organic solvent used in solvent B, producing a linear equation that allowed for logkw to be extrapolated (Figure S43). The logkw value represents the retention factor in a 100% aqueous solution; thus, higher values indicate more lipophilic compounds. While this method for determining lipophilicity is slightly different from the shake-flask method, it has been used previously to compare a series of complexes that are structurally similar and is fitting for this group of complexes.

The source of these data is article PMC9029360, “Cyclooxygenase-Inhibiting Platinum(IV) Prodrugs with Potent Anticancer Activity” (Pharmaceutics, 2022).

Read-outs that look alike come from different tables or passages of the source.

Usually GI50 stands for the concentration giving 50% growth inhibition. What is called inhibition is how much of the control response was suppressed. Turning to `CC(=O)Oc1ccccc1C(=O)O` [Aspirin, aspirin], the 50% growth inhibitory concentration (GI50) in [1] (Homo sapiens, MCF-10A) is above 50000 nM; in the data set on A431 skin [2] (Homo sapiens, A-431, 72 h drug exposure), above 50000 nM; in the data set with MIA pancreas [3], above 50000 nM; with BE2-C neuroblastoma [4] (Homo sapiens, BE(2)-C), above 50000 nM; in the data set with SJ-G2 glioblastoma [6], above 50000 nM; with H460 lung [7] (Homo sapiens, NCI-H460, 72 h drug exposure) it was above 50000 nM. Further, the GI50 was above 50000 nM in the data set on MCF-7 breast [8] (Homo sapiens, MCF7, 72 h drug exposure); above 50000 nM in data set [9] (Homo sapiens, HT-29, 72 h drug exposure); above 50000 nM with A2780 ovarian [10] (Homo sapiens); above 50000 nM in the data set with U87 glioblastoma [11]; above 50000 nM in data set [12] (Homo sapiens, DU-145, 72 h drug exposure); above 50000 nM in [14] (Homo sapiens, A2780). Also, the COX-2 inhibition result at human COX-2 [5] (at 7 µM) and at human COX-2 [5] (at 70 µM) was “No inhibition” each time. For the same compound, on human COX-2 [13], the inhibition at 700 µM was 19%.

For the compound `N.N.[Cl][Pt][Cl]` [Cisplatin, cisplatin], the GI50 in data set [15] is 5200 nM; in the data set on MIA pancreas [16] it was 7500 nM; in the data set on SJ-G2 glioblastoma [17], 400 nM; with A431 skin [18], 2400 ± 300 nM; with U87 glioblastoma [19], 3800 nM; in the data set on MCF-7 breast [20], 6500 ± 800 nM. In addition, the 50% growth inhibitory concentration (GI50) was 1900 ± 200 nM with BE2-C neuroblastoma [21]; 1200 ± 100 nM in data set [22]; 28000 nM in data set [23]; 1000 ± 100 nM with A2780 ovarian [24]; 11300 nM in [26]; 900 ± 200 nM in the data set on H460 lung [27]. Besides, the “cellular platinum uptake (rank in words)” value in [25] was “lowest uptake”. For the same compound, the “uptake level, fold lower than PHENSS(IV)” value in the data set with ADDP cell line was “~ two-fold”. For the same compound, the “fold less active than PHENSS(IV) (GI50 values)” value in data set [14] (ADDP cell line) is ~ 22 fold. In addition, in [14] (ratio of GI50 values ADDP vs A2780), the “fold decrease in activity in the cisplatin-resistant ADDP cell line compared to the A2780 cell line” value turned out to be 28 fold.

With “[Pt(Phen)(SSDACH)(Aspirin)(OH)](NO3)2 [compound 3]”, the “reduction by ascorbic acid (1H and 195Pt NMR)” value in data set [28] is “reduction to its platinum(II) congener”. The GI50 in data set [1] amounted to 210 ± 29 nM; in the data set on A431 skin [2] (72 h drug exposure) it was 670 ± 100 nM; with MIA pancreas [3], 160 ± 30 nM; in the data set with BE2-C neuroblastoma [4], 620 ± 90 nM; in the data set with SJ-G2 glioblastoma [6], 360 ± 60 nM; with H460 lung [7] (72 h drug exposure) it was 350 ± 20 nM. The GI50 was found to be 390 ± 80 nM in the data set with MCF-7 breast [8] (72 h drug exposure); 140 ± 10 nM in data set [9] (72 h drug exposure); 260 ± 30 nM with A2780 ovarian [10]; 600 ± 60 nM in the data set with U87 glioblastoma [11]; 140 ± 10 nM in data set [12] (72 h drug exposure); 200 nM in data set [14]. The Log kw in [29] was 0.41.
